Measurements published in patent publication US8241648B2, “Amphiphilic or lipophilic polar functionalized fullerenes and their uses” (Luna Innovations Incorporated, priority 2007, dated 2012).

Experiment: Radical addition of an unstable nitrogen:peroxide radical (immobilized activated amine, butanone peroxide, xylene), measured by HPLC
Settings: control anti-oxidant in xylene, same conditions
Procedure: An unstable nitrogen radical was made by adding butanone peroxide to nitrogen immobilized on a solid substrate in the presence of either C70, C60 or, as a control, the anti-oxidant Vitamin E in xylene. Radical addition of the substrate to the immobilized, activated amine is measured by HPLC. […] 74% of the C70 was bound to the nitrogen while only 27% of the C60 was bound.

Substance: Vitamin E
- reaction with the unstable nitrogen radical: did not react at all
